Measured values reported in patent US20260130395A1, “Water Dispersible Botanical Compositions” (Aquila Black Limited, priority 2021, published 2026).

Tests used:
[1] = Stability of cannabinoid entourage and Vitamin E components of the powder concentrate by LCMSMS; format: physicochemical; conditions: powder stored at 21-25° C.
Description: At each time period, 0.05 g of powder was dissolved in 10 ml-15 of ethanol, diluted to fall within the analytical range, and injected into the LCMSMS for analysis.

[2] = Stability of cannabinoid compounds and Vitamin E components in Beverage 1 (AB White) by LCMSMS; format: physicochemical; conditions: AB White stored at 8° C.

SMILES: CCCCCc1cc(O)c2c(c1)OC(C)(C)c1ccc(C)cc1-2 [CBN, cannabinol]
- Stability of Plant-Derived Cannabinoid Compounds in Powder Concentrate ([1]; 0 days): 0.480 mg/g powder
- Stability of Plant-Derived Cannabinoid Compounds in Powder Concentrate ([1]; 1 days): 0.471 mg/g powder
- Stability of Plant-Derived Cannabinoid Compounds in Powder Concentrate ([1]; 2 days): 0.488 mg/g powder
- Stability of Plant-Derived Cannabinoid Compounds in Powder Concentrate ([1]; 3 days): 0.474 mg/g powder
- Stability of Plant-Derived Cannabinoid Compounds in Powder Concentrate ([1]; 5 days): 0.491 mg/g powder
- Stability of Plant-Derived Cannabinoid Compounds in Powder Concentrate ([1]; 8 days): 0.469 mg/g powder
- Stability of Plant-Derived Cannabinoid Compounds in Powder Concentrate ([1]; 9 days): 0.466 mg/g powder
- Stability of Plant-Derived Cannabinoid Compounds in Powder Concentrate ([1]; 10 days): 0.499 mg/g powder
- Stability of Plant-Derived Cannabinoid Compounds in Powder Concentrate ([1]; 11 days): 0.494 mg/g powder
- Stability of Plant-Derived Cannabinoid Compounds in Powder Concentrate ([1]; 12 days): 0.496 mg/g powder
- Stability of Plant-Derived Cannabinoid Compounds in Powder Concentrate ([1]; 15 days): 0.472 mg/g powder
- Stability of Plant-Derived Cannabinoid Compounds in Powder Concentrate ([1]; 16 days): 0.483 mg/g powder
- Stability of Plant-Derived Cannabinoid Compounds in Powder Concentrate ([1]; 17 days): 0.465 mg/g powder
- Stability of Plant-Derived Cannabinoid Compounds in Powder Concentrate ([1]; 18 days): 0.470 mg/g powder
- Stability of Plant-Derived Cannabinoid Compounds in Powder Concentrate ([1]; 19 days): 0.490 mg/g powder
- Stability of Plant-Derived Cannabinoid Compounds in Powder Concentrate ([1]; 22 days): 0.486 mg/g powder
- Stability of Plant-Derived Cannabinoid Compounds in Powder Concentrate ([1]; 23 days): 0.469 mg/g powder
- Stability of Plant-Derived Cannabinoid Compounds in Powder Concentrate ([1]; 24 days): 0.465 mg/g powder
- Stability of Plant-Derived Cannabinoid Compounds in Powder Concentrate ([1]; 25 days): 0.486 mg/g powder
- Stability of Plant-Derived Cannabinoid Compounds in Powder Concentrate ([1]; 26 days): 0.486 mg/g powder
- Stability of Plant-Derived Cannabinoid Compounds in Powder Concentrate ([1]; 29 days): 0.484 mg/g powder
- Stability of Plant-Derived Cannabinoid Compounds in Powder Concentrate ([1]; 30 days): 0.476 mg/g powder
- Stability of Plant-Derived Cannabinoid Compounds in Powder Concentrate ([1]; 60 days): 0.489 mg/g powder
- Stability of Plant-Derived Cannabinoid Compounds in Powder Concentrate ([1]; 90 days): 0.483 mg/g powder
- Stability of Plant-Derived Cannabinoid Compounds in Powder Concentrate ([1]; 120 days): 0.498 mg/g powder
- Stability of Plant-Derived Cannabinoid Compounds in Powder Concentrate ([1]; 150 days): 0.500 mg/g powder
- Stability of Plant-Derived Cannabinoid Compounds in Powder Concentrate ([1]; 180 days): 0.464 mg/g powder
- Stability of Plant-Derived Cannabinoid Compounds in Powder Concentrate ([1]; 210 days): 0.501 mg/g powder
- Stability of Plant-Derived Cannabinoid Compounds in Powder Concentrate ([1]; 240 days): 0.467 mg/g powder
- Stability of Plant-Derived Cannabinoid Compounds in Powder Concentrate ([1]; 270 days): 0.464 mg/g powder
- Stability of Plant-Derived Cannabinoid Compounds in Powder Concentrate ([1]; 300 days): 0.469 mg/g powder
- Stability of Plant-Derived Cannabinoid Compounds in Powder Concentrate ([1]; 330 days): 0.502 mg/g powder
- Stability of Plant-Derived Cannabinoid Compounds in Powder Concentrate ([1]; 360 days): 0.499 mg/g powder
- Stability of Plant-Derived Cannabinoid Compounds in Powder Concentrate ([1]; 390 days): 0.479 mg/g powder
- Stability of Plant-Derived Cannabinoid Compounds in Powder Concentrate ([1]; 420 days): 0.481 mg/g powder
- Stability of Plant-Derived Cannabinoid Compounds in Powder Concentrate ([1]; 450 days): 0.480 mg/g powder
- Stability of Plant-Derived Cannabinoid Compounds in Powder Concentrate ([1]; 480 days): 0.485 mg/g powder
- Stability of Plant-Derived Cannabinoid Compounds in Powder Concentrate ([1]; 510 days): 0.499 mg/g powder
- Stability of Plant-Derived Cannabinoid Compounds in Powder Concentrate ([1]; 540 days): 0.492 mg/g powder
- Stability of Plant-Derived Cannabinoid Compounds in Powder Concentrate ([1]; 570 days): 0.471 mg/g powder
- Stability of Plant-Derived Cannabinoid Compounds in AB White, 8° C. ([2]; 0 days): 2.79 µg/mL
- Stability of Plant-Derived Cannabinoid Compounds in AB White, 8° C. ([2]; 1 days): 2.77 µg/mL
- Stability of Plant-Derived Cannabinoid Compounds in AB White, 8° C. ([2]; 2 days): 2.72 µg/mL
- Stability of Plant-Derived Cannabinoid Compounds in AB White, 8° C. ([2]; 3 days): 2.73 µg/mL
- Stability of Plant-Derived Cannabinoid Compounds in AB White, 8° C. ([2]; 5 days): 2.76 µg/mL
- Stability of Plant-Derived Cannabinoid Compounds in AB White, 8° C. ([2]; 8 days): 2.75 µg/mL
- Stability of Plant-Derived Cannabinoid Compounds in AB White, 8° C. ([2]; 9 days): 2.76 µg/mL
- Stability of Plant-Derived Cannabinoid Compounds in AB White, 8° C. ([2]; 10 days): 2.79 µg/mL
- Stability of Plant-Derived Cannabinoid Compounds in AB White, 8° C. ([2]; 11 days): 2.71 µg/mL
- Stability of Plant-Derived Cannabinoid Compounds in AB White, 8° C. ([2]; 12 days): 2.80 µg/mL
- Stability of Plant-Derived Cannabinoid Compounds in AB White, 8° C. ([2]; 15 days): 2.79 µg/mL
- Stability of Plant-Derived Cannabinoid Compounds in AB White, 8° C. ([2]; 16 days): 2.77 µg/mL
- Stability of Plant-Derived Cannabinoid Compounds in AB White, 8° C. ([2]; 17 days): 2.82 µg/mL
- Stability of Plant-Derived Cannabinoid Compounds in AB White, 8° C. ([2]; 18 days): 2.71 µg/mL
- Stability of Plant-Derived Cannabinoid Compounds in AB White, 8° C. ([2]; 19 days): 2.71 µg/mL
- Stability of Plant-Derived Cannabinoid Compounds in AB White, 8° C. ([2]; 22 days): 2.76 µg/mL
- Stability of Plant-Derived Cannabinoid Compounds in AB White, 8° C. ([2]; 23 days): 2.71 µg/mL
- Stability of Plant-Derived Cannabinoid Compounds in AB White, 8° C. ([2]; 24 days): 2.75 µg/mL
- Stability of Plant-Derived Cannabinoid Compounds in AB White, 8° C. ([2]; 25 days): 2.75 µg/mL
- Stability of Plant-Derived Cannabinoid Compounds in AB White, 8° C. ([2]; 26 days): 2.76 µg/mL
